In patent US6525001B1, “Substituted pyrimidine and pyridine herbicides” (Mid-American Commercialization Corporation, priority 1997, dated 2003):

Experiments:
Type in all cases: in vivo
[1] = tested on: giant foxtail (Setaria faberii); test: Test C; parameters: key: 0 was no effect; 100 was complete control; conditions: PREEMERGENCE
[2] = tested on: black nightshade (Solanum nigra); test: Test D; parameters: key: 0 is no effect; 100 is complete control; conditions: POSTEMERGENCE
Description: (§1) Compounds evaluated in this test were formulated in a non-phytotoxic solvent mixture which included a surfactant and applied to plants that were in the 1- to 4-leaf stage (postemergence application). A mixture of sandy loam soil and greenhouse potting mix in a 60:40 ratio was used for the postemergence test.
(§2) Plantings of these crops and weed species were adjusted to produce plants of appropriate size for the postemergence test. All plant species were grown using normal greenhouse practices. Crop and weed species include alfalfa (Medicago sativa), annual bluegrass (Poa annua), blackgrass (Alopecurus myosuroides), black nightshade (Solanum nigra), chickweed (Stellaria media), common poppy (Papaver rhoeas), deadnettle (Lamium amplexicaule), downy brome (Bromus tectorum), field violet (Viola arvensis), galium 2 (Galium aparine), green foxtail (Setaria viridis), Italian ryegrass (Lolium multiflorum), jointed goatgrass (Aegilops cylindrica), kochia (Kochia scoparia), lambsquarters (Chenopodium album), lentil (Lens culinaris), littleseed canarygrass (Phalaris minor), pea (Pisum sativum), potato (Solanum tuberosum), rape (Brassica napus), redroot pigweed (Amaranthus retroflexus), Russian thistle (Salsola kali), scentless chamomile (Matricaria inodora), sorghum (Sorghum vulgare), spring barley (Hordeum vulgare), sugar beet (Beta vulgaris), sunflower (Helianthus annuus), ivyleaf speedwell (Veronica hederaefolia), spring wheat (Triticum aestivum), winter wheat (Triticum aestivum), wild buckwheat (Polygonum convolvulus), wild mustard (Sinapis arvensis), wild oat (Avena fatua), windgrass (Apera spica-venti) and winter barley (Hordeum vulgare).
(§3) Treated plants and untreated controls were maintained in a greenhouse for approximately 21 to 28 days, after which all treated plants were compared to untreated controls and visually evaluated. Plant response ratings, summarized in Table D, are based upon a 0 to 100 scale where 0 is no effect and 100 is complete control. A dash response (−) means no test result.

[3] = tested on: chickweed (Stellaria media); test: Test D; parameters: key: 0 is no effect; 100 is complete control; conditions: POSTEMERGENCE
Description: as §1, §2, §3

[4] = tested on: common poppy (Papaver rhoeas); test: Test D; parameters: key: 0 is no effect; 100 is complete control; conditions: POSTEMERGENCE
Description: as §1, §2, §3

[5] = tested on: deadnettle (Lamium amplexicaule); test: Test D; parameters: key: 0 is no effect; 100 is complete control; conditions: POSTEMERGENCE
Description: as §1, §2, §3

rape (Brassica napus) = test: Test D; parameters: key: 0 is no effect; 100 is complete control; conditions: POSTEMERGENCE
Description: as §1, §2, §3

[6] = tested on: sugar beet (Beta vulgaris); test: Test D; parameters: key: 0 is no effect; 100 is complete control; conditions: POSTEMERGENCE
Description: as §1, §2, §3

[7] = tested on: wild mustard (Sinapis arvensis); test: Test D; parameters: key: 0 is no effect; 100 is complete control; conditions: POSTEMERGENCE
Description: as §1, §2, §3

[8] = tested on: green foxtail (Setaria viridis); test: Test E pre-/postemergence/post directed; parameters: key: 0 is no effect; 100 is complete control; conditions: PREEMERGENCE
How it was run: (§4)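 Injury was scored visually on a 0 to 100 scale (100 = complete control) 13 to 21 days after treatment of greenhouse-grown plants. Test chemicals, in a surfactant-containing non-phytotoxic solvent, were sprayed onto soil within a day of planting, onto plants at the two to four leaf stage, or directed at the base of the plants.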

[9] = tested on: leafy spurge (Euphorbia esula); test: Test E pre-/postemergence/post directed; parameters: key: 0 is no effect; 100 is complete control; conditions: PREEMERGENCE
How it was run: as §4

[10] = tested on: downy brome (Bromus tectorum); test: Test D; conditions: PREEMERGENCE
[11] = tested on: field violet (Viola arvensis); test: Test D; conditions: PREEMERGENCE
[12] = tested on: jointed goatgrass (Aegilops cylindrica); test: Test D; conditions: PREEMERGENCE
kochia (Kochia scoparia) = test: Test D; parameters: key: 0 is no effect; 100 is complete control; conditions: PREEMERGENCE
[13] = tested on: winter barley (Hordeum vulgare); test: Test D; conditions: PREEMERGENCE

Structure (SMILES): Cc1cnc(-c2ccc(C(F)(F)F)cc2)nc1Cc1cccc(C(F)(F)F)c1 [Example 1, 5-methyl-2-[4-(trifluoromethyl)phenyl]-4-[[3-(trifluoromethyl)phenyl]methyl]pyrimidine]
- Plant response rating, Giant foxtail ([1]; Rate 35 g/ha): 100
- Plant response rating, Giant foxtail ([1]; Rate 70 g/ha): 100
- Plant response rating, Giant foxtail ([1]; Rate 140 g/ha): 100
- Plant response rating, Blk nightshade ([2]; Rate 16 g/ha): 60
- Plant response rating, Blk nightshade ([2]; Rate 62 g/ha): 50
- Plant response rating, Blk nightshade ([2]; Rate 125 g/ha): 50
- Plant response rating, Chickweed ([3]; Rate 16 g/ha): 80
- Plant response rating, Chickweed ([3]; Rate 62 g/ha): 80
- Plant response rating, Chickweed ([3]; Rate 125 g/ha): 70
- Plant response rating, Common poppy ([4]; Rate 16 g/ha): 50
- Plant response rating, Common poppy ([4]; Rate 31 g/ha): 100
- Plant response rating, Common poppy ([4]; Rate 62 g/ha): 100
- Plant response rating, Common poppy ([4]; Rate 125 g/ha): 100
- Plant response rating, Deadnettle ([5]; Rate 16 g/ha): 85
- Plant response rating, Deadnettle ([5]; Rate 31 g/ha): 70
- Plant response rating, Deadnettle ([5]; Rate 62 g/ha): 70
- Plant response rating, Deadnettle ([5]; Rate 125 g/ha): 70
- Plant response rating, Rape (rape (Brassica napus); Rate 16 g/ha): 65
- Plant response rating, Rape (rape (Brassica napus); Rate 31 g/ha): 100
- Plant response rating, Rape (rape (Brassica napus); Rate 62 g/ha): 100
- Plant response rating, Rape (rape (Brassica napus); Rate 125 g/ha): 85
- Plant response rating, Sugar beet ([6]; Rate 16 g/ha): 45
- Plant response rating, Sugar beet ([6]; Rate 31 g/ha): 75
- Plant response rating, Sugar beet ([6]; Rate 62 g/ha): 90
- Plant response rating, Sugar beet ([6]; Rate 125 g/ha): 100
- Plant response rating, Wild mustard ([7]; Rate 16 g/ha): 85
- Plant response rating, Wild mustard ([7]; Rate 31 g/ha): 100
- Plant response rating, Wild mustard ([7]; Rate 62 g/ha): 100
- Plant response rating, Wild mustard ([7]; Rate 125 g/ha): 100
- Plant response rating, Green foxtail ([8]; Rate 32 g/ha): 100
- Plant response rating, Green foxtail ([8]; Rate 64 g/ha): 100
- Plant response rating, Green foxtail ([8]; Rate 125 g/ha): 100
- Plant response rating, Leafy spurge ([9]; Rate 32 g/ha): 75
- Plant response rating, Leafy spurge ([9]; Rate 64 g/ha): 95
- Plant response rating, Leafy spurge ([9]; Rate 125 g/ha): 100
- Plant response rating, Downy brome ([10]; Rate 31 g/ha): 30
- Plant response rating, Downy brome ([10]; Rate 62 g/ha): 50
- Plant response rating, Downy brome ([10]; Rate 125 g/ha): 60
- Plant response rating, Field violet ([11]; Rate 31 g/ha): 20
- Plant response rating, Field violet ([11]; Rate 62 g/ha): 70
- Plant response rating, Field violet ([11]; Rate 125 g/ha): 85
- Plant response rating, Field violet ([11]; Rate 250 g/ha): 85
- Plant response rating, Jointed goatgra ([12]; Rate 31 g/ha): 10
- Plant response rating, Jointed goatgra ([12]; Rate 62 g/ha): 20
- Plant response rating, Jointed goatgra ([12]; Rate 125 g/ha): 70
- Plant response rating, Jointed goatgra ([12]; Rate 250 g/ha): 50
- Plant response rating, Kochia (kochia (Kochia scoparia); Rate 31 g/ha): 40
- Plant response rating, Kochia (kochia (Kochia scoparia); Rate 62 g/ha): 100
- Plant response rating, Kochia (kochia (Kochia scoparia); Rate 125 g/ha): 100
- Plant response rating, Kochia (kochia (Kochia scoparia); Rate 250 g/ha): 85
- Plant response rating, Barley (winter) ([13]; Rate 31 g/ha): 10
- Plant response rating, Barley (winter) ([13]; Rate 62 g/ha): 20
- Plant response rating, Barley (winter) ([13]; Rate 125 g/ha): 30
- Plant response rating, Barley (winter) ([13]; Rate 250 g/ha): 40
